Test results taken from US7691844B2, “Nonpeptide substituted spirobenzoazepines as vasopressin antagonists” (Ortho-McNeil Pharmaceutical, Inc., priority 2000, dated 2010).
Blank lines part the entries; values can stand above or below the compound they belong to.

What was measured:
human V2 receptor = human V2 receptor (Homo sapiens, UniProt P30518); assay: In-vitro receptor binding assay (3H-arginine-8-vasopressin), V2; details: for inhibition at 1 µM / inhibition at 0.1 µM / inhibition at 10 µM: read-out: Receptor Binding V2 (% Inh. @ concentration in μM)
Sequence of human V2 receptor (P30518 whole entry): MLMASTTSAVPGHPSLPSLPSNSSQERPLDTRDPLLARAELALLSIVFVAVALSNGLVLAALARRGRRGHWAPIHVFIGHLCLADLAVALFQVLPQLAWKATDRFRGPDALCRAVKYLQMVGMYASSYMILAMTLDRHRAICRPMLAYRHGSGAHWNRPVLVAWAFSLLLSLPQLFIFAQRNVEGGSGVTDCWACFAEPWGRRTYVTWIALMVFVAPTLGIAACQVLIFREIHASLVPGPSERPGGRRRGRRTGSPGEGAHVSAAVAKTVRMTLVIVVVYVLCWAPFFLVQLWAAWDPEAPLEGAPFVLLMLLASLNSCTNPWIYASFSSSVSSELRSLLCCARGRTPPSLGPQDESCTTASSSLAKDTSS
Method: (§1) (A) In-Vitro Binding Assay […] The reaction plates are allowed to sit at room temperature for one hour. The samples are filtered through Unifilter GF/C plates (presoaked in 0.3 polyethyleneimine). The plates are washed 5 times with cold physiological saline containing 0.05% Tween 20. After drying, the bottom of the filter plates are sealed and 0.025 ml of Microscint-20 is added to each filter. The top of the plate is sealed, and the plate is counted. Non-specific binding is determined by the addition of 1.25 μM […]-vasopressin in those wells. % Inh. is calculated as follows: […]

V1a = V1a (Homo sapiens, UniProt P37288); assay: In-vitro receptor binding assay (3H-arginine-8-vasopressin), V1a
Sequence of V1a (P37288 whole entry): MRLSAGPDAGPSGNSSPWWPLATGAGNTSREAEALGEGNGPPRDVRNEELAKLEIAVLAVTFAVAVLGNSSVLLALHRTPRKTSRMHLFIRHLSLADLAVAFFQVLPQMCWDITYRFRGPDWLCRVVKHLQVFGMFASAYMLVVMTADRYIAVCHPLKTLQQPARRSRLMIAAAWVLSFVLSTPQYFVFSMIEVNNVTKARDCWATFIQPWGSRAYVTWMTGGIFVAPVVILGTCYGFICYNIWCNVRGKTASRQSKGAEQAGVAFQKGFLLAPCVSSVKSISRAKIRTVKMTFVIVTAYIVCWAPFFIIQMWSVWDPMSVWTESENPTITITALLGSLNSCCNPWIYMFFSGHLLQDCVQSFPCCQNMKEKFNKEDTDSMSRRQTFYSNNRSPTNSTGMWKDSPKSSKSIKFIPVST
Method: as §1

[1] = read-out: Receptor Binding V1a (% Inh. @ concentration in μM)

inhibition at 1 µM (human V2 receptor; @ 1 μM): 43% | IC50 (V1a): 0.055 µM
SMILES: Cc1ccn(-c2ccc(C(=O)N3CCC4(C=C(C(=O)NCCN(C)C)CC4)Cc4ccccc43)cc2)n1 (stereo not drawn) [Compound 209]

inhibition at 1 µM (human V2 receptor; @ 1 μM): 0% | IC50 (V1a): 0.066 µM
SMILES: CSc1ccc(C(=O)N2CCC3(C=CCCC3)Cc3ccccc32)cc1 (stereo not drawn) [Compound 92]

inhibition at 0.1 µM (human V2 receptor): 57% | inhibition at 0.1 µM (V1a; [1]): 35%
SMILES: Cc1ccc(F)cc1C(=O)Nc1ccc(C(=O)N2CCC3(C=C(C=O)CC3)Cc3ccccc32)c(Cl)c1 (stereo not drawn) [Compound 138]

Receptor Binding V2 (% Inh. @ concentration in μM) (human V2 receptor; @ 1 μM): 21% @ 1 | IC50 (V1a): 0.01 µM
SMILES: Nc1ccc(C(=O)Nc2ccc(C(=O)N3CCC4(C=CCCC4)Cc4ccccc43)cc2)cc1 (stereo not drawn) [Compound 70]

Receptor Binding V2 (% Inh. @ concentration in μM) (human V2 receptor; @ 1 μM): 16% @ 1 | IC50 (V1a): 0.04 µM
SMILES: CN(C)c1ccc(C(=O)N2CCC3(C=CCCC3)Cc3cc(Cl)c(Cl)cc32)cc1 (stereo not drawn) [Compound 72]

Receptor Binding V2 (% Inh. @ concentration in μM) (human V2 receptor; @ 1 μM): 15% @ 1 | IC50 (V1a): 1.2 µM
SMILES: CN(C)CCNC(=O)C1=CC2(CC1)CCN(C(=O)c1ccc(N)cc1)c1ccccc1C2 (stereo not drawn) [Compound 191]

inhibition at 1 µM (human V2 receptor; @ 1 μM): 34% | IC50 (V1a): 0.034 µM
SMILES: COc1cc(-n2ccc(CO)c2)ccc1C(=O)N1CCC2(C=C(C(=O)NCCN(C)C)CC2)Cc2ccccc21 (stereo not drawn) [Compound 196]

IC50 (V1a): 0.013 µM
SMILES: CN(C)CCNC(=O)C1=CC2(CC1)CCN(C(=O)c1ccc(NC(=O)c3cc(F)ccc3F)cc1)c1ccccc1C2 (stereo not drawn) [Compound 220]

inhibition at 1 µM (human V2 receptor; @ 1 μM): 28% | IC50 (V1a): 0.008 µM
SMILES: COc1cc(C(=O)N2CCC3(C=C(C(=O)NCCN(C)C)CC3)Cc3ccccc32)ccc1-n1ccc(CO)c1 (stereo not drawn) [Compound 190, 4-[3-Methoxy-4-(3-hydroxymethylpyrrol-1-yl)benzoyl]-3′-[2-(N,N-dimethylamino)ethylcarboxamido]-4-aza-[6,4]-spiro-[5,6]-benzoundec-2′-ene]

inhibition at 10 µM (human V2 receptor; @ 10 μM): 33% | IC50 (V1a): 3.5 µM
SMILES: O=C(c1cccc(Cl)c1)N1CCC2(C=CCCC2)Cc2ccccc21 (stereo not drawn) [Compound 46]

Receptor Binding V2 (% Inh. @ concentration in μM) (human V2 receptor; @ 1 μM): 14% @ 1 | IC50 (V1a): 0.051 µM
SMILES: CN(C)c1ccc(C(=O)N2CCC3(C=CCCC3)Cc3ccccc32)cc1 (stereo not drawn) [Compound 60]

inhibition at 1 µM (human V2 receptor; @ 1 μM): 20% | IC50 (V1a): 0.088 µM
SMILES: O=C(c1ccc(OC2CCCC2)cc1)N1CCC2(C=CCCC2)Cc2ccccc21 (stereo not drawn) [Compound 180]

IC50 (human V2 receptor): 0.228 µM | IC50 (V1a): 0.062 µM
SMILES: COc1cc(C(=O)N2CCC3(C=CCCC3)Cc3ccccc32)ccc1NC(=O)c1cc(F)ccc1C (stereo not drawn) [Compound 182]

IC50 (human V2 receptor): 0.39 µM | IC50 (V1a): 0.02 µM
SMILES: O=C(Nc1ccc(C(=O)N2CCC3(C=CCCC3)Cc3ccccc32)cc1)c1ccccc1 (stereo not drawn) [Compound 67]

IC50 (human V2 receptor): 0.085 µM | inhibition at 0.1 µM (V1a; [1]): 40%
SMILES: O=C(Nc1ccc(C(=O)N2CCC3(C=CCCC3)Cc3ccccc32)c(Cl)c1)c1ccccc1-c1ccccc1 (stereo not drawn) [Compound 118]

Receptor Binding V2 (% Inh.) (human V2 receptor; concentration not given): 0% | inhibition at 0.1 µM (V1a; [1]): 41%
SMILES: CC(=O)N1CCC(Oc2ccc(C(=O)N3CCC4(C=CCCC4)Cc4ccccc43)cc2)CC1 (stereo not drawn) [Compound 224, 4-(4-(N-acetylpiperidin-4-yloxy)benzoyl)-4-aza-[6,5]-spiro-[5,6]-benzododec-2′-ene]

inhibition at 0.1 µM (human V2 receptor): 67% | inhibition at 0.1 µM (V1a; [1]): 10%
SMILES: Cc1ccc(F)cc1C(=O)Nc1ccc(C(=O)N2CCC3(C=C(C(=O)O)CC3)Cc3ccccc32)c(Cl)c1 (stereo not drawn) [Compound 143]

inhibition at 1 µM (human V2 receptor; @ 1 μM): 1% | IC50 (V1a): 0.07 µM
SMILES: COc1ccc(C(=O)N2CCC3(C=CCCC3)Cc3ccccc32)cc1OC (stereo not drawn) [Compound 75]

IC50 (human V2 receptor): 0.2 µM | IC50 (V1a): 0.03 µM
SMILES: COc1ccccc1C(=O)Nc1ccc(C(=O)N2CCC3(C=CCCC3)Cc3ccccc32)cc1 (stereo not drawn) [Compound 71]

inhibition at 10 µM (human V2 receptor; @ 10 μM): 42% | IC50 (V1a): 0.68 µM
SMILES: O=C(c1ccc(F)c(F)c1)N1CCC2(C=CCCC2)Cc2ccccc21 (stereo not drawn) [Compound 43]

inhibition at 1 µM (human V2 receptor; @ 1 μM): 4% | IC50 (V1a): 0.34 µM
SMILES: CC(=O)Nc1ccc(C(=O)N2CCC3(C=CCCC3)Cc3ccccc32)cc1 (stereo not drawn) [Compound 57]

inhibition at 1 µM (human V2 receptor; @ 1 μM): 11% | inhibition at 1 µM (V1a; [1]): 48%
SMILES: COc1cc(C(=O)N2CCC3(C=C(C(=O)NCCN(C)C)CC3)Cc3ccccc32)ccc1[N+](=O)[O-] (stereo not drawn) [Compound 186, 4-(3-Methoxy-4-nitrobenzoyl)-4-aza-3′-[2-(N,N-dimethylamino)ethylcarboxamido]-[6,4]-spiro-[5,6]benzoundec-2′-ene]

inhibition at 1 µM (human V2 receptor; @ 1 μM): 13% | IC50 (V1a): 0.11 µM
SMILES: O=C(c1ccc(-n2cccn2)c(F)c1)N1CCC2(C=CCCC2)Cc2ccccc21 (stereo not drawn) [Compound 156, 4-(3-Fluoro-4-(pyrazol-1-yl)benzoyl)-4-aza-[6,5]-spiro-[5,6]-benzododec-2′-ene]

IC50 (human V2 receptor): 0.047 µM | IC50 (V1a): 0.011 µM
SMILES: Cc1ccc(F)cc1C(=O)Nc1ccc(C(=O)N2CCC3(C=C(C(=O)NCCO)CC3)Cc3ccccc32)cc1 (stereo not drawn) [Compound 159]

inhibition at 1 µM (human V2 receptor; @ 1 μM): 21% | IC50 (V1a): 0.06 µM
SMILES: O=C(c1ccccc1F)N1CCC2(C=CCCC2)Cc2ccccc21 (stereo not drawn) [Compound 107]

Receptor Binding V2 (% Inh. @ concentration in μM) (human V2 receptor; @ 10 μM): 27% @ 10 | IC50 (V1a): 0.57 µM
SMILES: O=C(c1ccc(I)cc1)N1CCC2(C=CCCC2)Cc2ccccc21 (stereo not drawn) [Compound 40]

inhibition at 1 µM (human V2 receptor; @ 1 μM): 6% | inhibition at 1 µM (V1a; [1]): 7%
SMILES: COc1cc(N)ccc1C(=O)N1CCC2(C=C(C(=O)NCCN(C)C)CC2)Cc2ccccc21 (stereo not drawn) [Compound 194]

IC50 (human V2 receptor): 0.18 µM | IC50 (V1a): 0.012 µM
SMILES: O=C(Nc1ccc(C(=O)N2CCC3(C=CCCC3)Cc3ccccc32)cc1)c1ccccc1Cl (stereo not drawn) [Compound 96]

inhibition at 0.1 µM (V1a; [1]): 3%
SMILES: COC(=O)C1=CC2(CC1)CCN(C(=O)c1cc(OC)c(OC)c(OC)c1)c1ccccc1C2 (stereo not drawn) [Compound 203]

inhibition at 0.1 µM (V1a; [1]): 42%
SMILES: Cc1ccn(-c2ccc(C(=O)N3CCC4(C=C(C(=O)N5CCN(C)CC5)CC4)Cc4ccccc43)cc2)n1 (stereo not drawn) [Compound 217]

inhibition at 0.1 µM (V1a; [1]): 48%
SMILES: Cc1ccn(-c2ccc(C(=O)N3CCC4(C=C(C(=O)N5CCN(C)CC5)CC4)Cc4ccccc43)cc2N(C)C)n1 (stereo not drawn) [Compound 214]

IC50 (V1a): 0.14 µM
SMILES: CCCCOc1ccc(C(=O)N2CCC3(C=C(C(=O)OC)CC3)Cc3ccccc32)cc1 (stereo not drawn) [Compound 205]

inhibition at 0.1 µM (V1a; [1]): 0%
SMILES: COc1cc(-n2ccc(C(=O)O)c2)ccc1C(=O)N1CCC2(C=C(C(=O)NCCN(C)C)CC2)Cc2ccccc21 (stereo not drawn) [Compound 200]

Receptor Binding V2 (% Inh. @ concentration in μM) (human V2 receptor; @ 1 μM): 2% @ 1
SMILES: COc1ccc(C(=O)Nc2ccc(C(=O)N3CCC4(C=CCCC4)Cc4ccccc43)cc2)cc1OC (stereo not drawn) [Compound 97]

inhibition at 0.1 µM (V1a; [1]): 6%
SMILES: COc1cc(C(=O)N2CCC3(C=C(C(=O)N4CCN(C)CC4)CC3)Cc3ccccc32)ccc1-n1ccc(C(C)=O)c1 (stereo not drawn) [Compound 216]

IC50 (V1a): 0.009 µM
SMILES: CN(C)CCCNC(=O)C1=CC2(CC1)CCN(C(=O)c1ccc(NC(=O)c3cc(F)ccc3F)cc1)c1ccccc1C2 (stereo not drawn) [Compound 221]

Receptor Binding V2 (% Inh. @ concentration in μM) (human V2 receptor; @ 10 μM): 42% @ 10
SMILES: O=C(c1ccc(F)cc1)N1CCC2(C=CCCC2)Cc2ccccc21 (stereo not drawn) [Compound 44]

inhibition at 0.2 µM (V1a; @ 0.2 μM, read-out: Receptor Binding V1a (% Inh. @ concentration in μM)): 48%
SMILES: O=C(O)C1=CC2(CC1)CCN(C(=O)c1ccc(NC(=O)c3cc(F)ccc3F)cc1)c1ccccc1C2 (stereo not drawn) [Compound 219]

inhibition at 0.1 µM (V1a; [1]): 0%
SMILES: CCOC(=O)Oc1c(OC)cc(C(=O)N2CCC3(C=C(C(=O)OC)CC3)Cc3ccccc32)cc1OC (stereo not drawn) [Compound 204]

IC50 (V1a): 0.65 µM
SMILES: O=C(c1ccccc1)N1CCC2(C=CCCC2)Cc2ccccc21 (stereo not drawn) [Compound 34]

inhibition at 0.1 µM (V1a; [1]): 64%
SMILES: COC(=O)C1=CC2(CC1)CCN(C(=O)c1ccc(-n3ccc(C(C)=O)c3)c(OC)c1)c1ccccc1C2 (stereo not drawn) [Compound 215]

inhibition at 0.1 µM (V1a; [1]): 9%
SMILES: CCOC(=O)Oc1c(OC)cc(C(=O)N2CCC3(C=CCCC3)Cc3ccccc32)cc1OC (stereo not drawn) [Compound 206, 4-(4-Ethoxycarboyloxy-3,5-dimethoxybenzoyl)-4-aza-[6,5]-spiro-[5,6]-benzododec-2′-ene]
